{"source": "patent US12168020B2", "about": "“Method for ameliorating, preventing or treating muscular atrophy or sarcopenia by administering composition comprising 2′-fucosyllactose as active ingredient” (ADVANCED PROTEIN TECHNOLOGIES CORP., priority 2021, dated 2024)", "key": {"atrogin-1 gene": {"tested_on": "atrogin-1 gene", "experiment": "qPCR of muscular atrophy gene atrogin-1 after dexamethasone", "format": "cell-based, mouse", "conditions": "2′-FL 100 or 200 μM, dexamethasone 400 μM 24 hours, vs dexamethasone group (Veh)"}, "MuRF1 gene": {"tested_on": "MuRF1 gene", "experiment": "qPCR of muscular atrophy gene MuRF1 after dexamethasone", "format": "cell-based, mouse", "conditions": "2′-FL 100 or 200 μM, dexamethasone 400 μM 24 hours, vs dexamethasone group (Veh)"}, "[1]": {"tested_on": "differentiated C2C12, mitochondria", "experiment": "Mitochondrial function: mtDNA expression and mitochondrial density (MitoTracker)", "format": "cell-based, mouse", "conditions": "differentiated C2C12, 2′-FL 100 and 200 μM, 24 hours, vs control group", "method": "Mitochondria have mitochondrial DNA (mtDNA) that is isolated from their own nuclear DNA. […] Such damage to mtDNA causes a decrease in mitochondrial function, leading to a decrease in synthesis of ATP, which is an energy molecule required for cellular a decrease in the ability to regulate activity, and homeostasis in vivo, which eventually causes the onset of various diseases. Accordingly, mtDNA expression and mitochondrial density upon treatment with 2′-FL were measured. […] C2C12 was treated with 2′-FL at different concentrations (100 and 200 μM) for 24 hours, was washed with PBS, added with a medium containing 200 nM of a MitoTracker green probe and cultured for 30 minutes. Then, the portion bound to the MitoTracker green probe was quantified with SpectraMax that absorbs a wavelength of 490 nm and emits a wavelength of 516 nm to measure the density of mitochondria. At this time, the AMPK agonist A-769662 (1 μM) was used as a positive control."}, "[2]": {"tested_on": "differentiated C2C12 treated with dexamethasone, mitochondria", "experiment": "Protection against dexamethasone-induced mitochondrial function inhibition", "format": "cell-based, mouse", "conditions": "2′-FL 100 or 200 μM, dexamethasone 400 μM 24 hours, vs dexamethasone group", "method": "Dexamethasone, a synthetic glucocorticoid, is known to decrease the rate of protein synthesis and increase the rate of protein degradation in muscles in vivo or in cultured cells. Accordingly, 1 hour after treatment of C2C12, which had been differentiated, with 2′-FL, C2C12 was treated with dexamethasone at a concentration of 400 μM for 24 hours to determine the muscular atrophy prevention effect of 2′-FL in a cell model. After treatment with dexamethasone, mtDNA expression and mitochondrial density were measured. […] In FIG. 6, 2FLL represents a group treated with 2′-FL at 100 μM, and 2FLH represent a group treated with 2′-FL at 200 μM."}, "[3]": {"tested_on": "C57BL/6 mice, muscle tissue", "experiment": "Dexamethasone-induced muscular atrophy mouse model: H&E muscle histology and muscle tissue weight", "format": "in vivo", "conditions": "2FLH (2′-FL 400 mg/kg oral), dexamethasone 10 mg/kg i.p., vs Veh", "method": "(§1) In order to determine whether or not 2′-FL has a prophylactic effect against muscular atrophy in an animal model, 2′-FL was orally administered at a concentration of 200 or 400 mg/kg to 7-week-old male C57BL/6 mice for 7 days, followed by intraperitoneal injection of dexamethasone known as a drug inducing muscular atrophy at a concentration of 10 mg/kg, and at the same time, oral administration of 2′-FL for 2 weeks. At this time, the experiment was conducted on mouse experimental groups, namely, a Nor group that received intraperitoneal injection of saline and distilled water, a that received intraperitoneal injection of Veh group dexamethasone and was orally administered distilled water, and a 2FLL group and a 2FLH group that received intraperitoneal injection of dexamethasone and was orally administered 2′-FL at 200 mg/kg and 400 mg/kg, respectively. The mouse muscle tissue was stained using the H&E method and then histological morphology was observed."}, "[4]": {"tested_on": "C2C12 myotubes treated with dexamethasone", "experiment": "Protection against dexamethasone-induced differentiation inhibition (myotube length and diameter)", "format": "cell-based, mouse", "conditions": "2′-FL high concentration (200 μM), dexamethasone 400 μM 24 hours, vs dexamethasone group (Veh)", "method": "(§2) Dexamethasone, a synthetic glucocorticoid, is known to decrease the rate of protein synthesis and increase the rate of protein degradation in muscles in vivo or in cultured cells. Accordingly, 1 hour after treatment of C2C12, which had been differentiated, with 2′-FL, C2C12 was treated with dexamethasone at a concentration of 400 μM for 24 hours to determine the muscular atrophy prevention effect of 2′-FL in a cell model. Meanwhile, in order to evaluate the prophylactic effect of the differentiation inhibition caused by treatment with dexamethasone, the length and diameter of myotubes were measured after treatment with dexamethasone."}, "atrogin-1 protein": {"tested_on": "atrogin-1 protein", "experiment": "Dexamethasone-induced muscular atrophy mouse model: atrogin-1 immunoblotting of muscle tissue", "format": "in vivo", "conditions": "2′-FL at a high concentration (400 mg/kg oral), dexamethasone 10 mg/kg i.p., vs Veh", "method": "as §1, with “Proteins were extracted by adding a Halt™ protease inhibitor to lysis buffer (10 mM Tris-HCl, pH 7.5, 1% NP-40, 0.1% sodium deoxycholate, 0.1% SDS, 150 mM NaCl, and 1 mM EDTA) in order to confirm protein expression using” for “The”, “tissue” for “tissue was stained using the H&E method”, “immunoblotting” for “histological morphology”, “performed. As primary antibodies, anti-α-tubulin (1:1000) and anti-atrogin-1 (1:1000) were used. The resulting image of immunoblotting was analyzed using a ChemiDoc™ touch imaging system (Bio-Rad) and Image Lab 5.2 software (Bio-Rad).” for “observed.”"}, "C57BL/6 mice [5]": {"tested_on": "C57BL/6 mice", "experiment": "Dexamethasone-induced muscular atrophy mouse model: grip strength test", "format": "in vivo", "conditions": "2′-FL 200 or 400 mg/kg oral, dexamethasone 10 mg/kg i.p., day before end of experiment, vs Veh", "method": "as §1, with “All experimental animals were subjected to a grip strength test” for “The mouse muscle tissue was stained”, “using a grip strength meter (Jeongdo Bio & Plant Co., Ltd.)” for “using”, “day before the end of the experiment.” for “H&E method and then histological morphology was observed.”"}, "[6]": {"tested_on": "C2C12, a mouse muscle (myoblast) cell line", "experiment": "MTT assay, cytotoxicity of 2′-FL in C2C12", "format": "cell-based", "conditions": "C2C12, 2′-FL 100, 200, 400 μM, 24 hours, vs control group", "method": "C2C12, a mouse muscle (myoblast) cell line, was cultured at 37° C. in the presence of 5% CO2 using a medium containing 90% DMEM, 10% FBS, and 10 unit/ml penicillin-streptomycin. In order to confirm the cytotoxicity of 2′-FL, the C2C12 cell line was seeded in each well of a 96-well plate at a concentration of 5×10^4 cells/well, cultured for 24 hours, and then treated with 2′-FL at various concentrations (100, 200, 400 μM) for 24 hours. Then, the medium was removed and a growth medium and 0.5 mg/ml of a diluted MTT solution were aliquoted in an amount of […] and incubated in a CO2 incubator. After 2 hours, the MTT reagent was removed, formazin was dissolved in DMSO (dimethyl sulfoxide), and absorbance was measured at 540 nm."}, "PGC-1α mRNA": {"tested_on": "PGC-1α mRNA", "experiment": "qPCR of mitochondrial biosynthesis gene PGC-1α", "format": "cell-based, mouse", "conditions": "C2C12, 2′-FL at a high concentration, vs control group", "from_the_text": "(§3) Mitochondria are organelles that have a main function of generating ATP, which is a form of intracellular energy, and perform various intracellular functions such as metabolism, signal transduction, apoptosis, and differentiation. Metabolic adaptation in skeletal muscle is achieved by the regulation of various genes, and PGC-1α (peroxisome proliferator-activated receptor-γ coactivator-1α) transcriptional cofactor is known to perform the most important role therefor. Accordingly, the mRNA expression changes of PGC-1α and the downstream gene thereof, NRF2, were determined upon treatment with 2′-FL.\n(§4) For this purpose, CDNA was synthesized from RNA extracted from C2C12 cells using ReverTra Ace qPCR RT Kit (TOYOBO). In order to increase the efficiency of the reaction, the RNA was pre-heated at 65° C. for 5 minutes and then immediately stored on ice. Then, a total of 8 μl of reagent was prepared from 2 μl of 4×DN master mix containing a gDNA remover, 0.5 μg of mRNA, and nuclease-free water, and then was amplified at 37° C. for 5 minutes.\n(§5) The reacted reagent was added with a 5×RT master mix, and amplified at 37° C. for 15 minutes, at 50° C. for 5 minutes, and at 98° C. for 5 minutes to synthesize cDNA. Then, the synthesized cDNA was subjected to qPCR using Thunderbird TMSYBR qPCR mix reagent (TOYOBO). The gene expression level was analyzed with the iQ5 Cycler System (Bio-Rad). […]"}, "NRF2 mRNA": {"tested_on": "NRF2 mRNA", "experiment": "qPCR of mitochondrial biosynthesis gene NRF2", "format": "cell-based, mouse", "conditions": "C2C12, 2′-FL at a high concentration, vs control group", "from_the_text": "as §3, §4, §5"}, "[7]": {"tested_on": "differentiated C2C12 treated with dexamethasone", "experiment": "Protection against dexamethasone-induced growth inhibition (trypan blue cell count)", "format": "cell-based, mouse", "conditions": "2′-FL high concentration (200 μM) 1 hour before dexamethasone 400 μM for 24 hours, vs dexamethasone group (Veh)", "method": "as §2, with “In” for “Meanwhile, in”, “growth” for “the differentiation”, “dexamethasone, C2C12 was treated with 2′-FL and dexamethasone in” for “dexamethasone,”, “same manner as above, the cells were removed with trypsin,” for “length”, “the number” for “diameter”, “the cells was counted using trypan blue staining.” for “myotubes were measured after treatment with dexamethasone.”"}, "C2C12 myotubes, MHC": {"tested_on": "C2C12 myotubes, MHC", "experiment": "MHC expression analysis by immunocytochemical staining (myocyte differentiation)", "format": "cell-based, mouse", "conditions": "C2C12, 2′-FL 100 and 200 μM, 24 hours, vs control group", "method": "In order to differentiate mouse myoblasts into myotubes, the mouse myoblasts were seeded at a concentration of 4×10^5 cells/well in each well of a 6-well plate, cultured for 24 hours until confluence reached 100% and then 2% horse serum was added thereto. Then, the mouse myoblasts were differentiated for 6 days while exchanging the DMEM containing 2% horse serum with fresh DMEM every 2 days. Immunocytochemical staining was performed to determine the effect of treatment with 2′-FL on myocyte differentiation. Specifically, C2C12 was treated with 2′-FL at different concentrations (100 and 200 μM) for 24 hours, and then fixed with a 4% paraformaldehyde solution for 10 minutes. The fixed cells were washed with PBS containing 0.1% Triton X-100 and then reacted in 5% BSA solution for 1 hour. The cells were washed 3 times with 1×PBS again and then were allowed to react with an MHC antibody (Cell signaling) at room temperature overnight. After the reaction was completed, the cells were washed 3 times with PBS and reacted with Alexa Fluor 488 goat anti-rabbit IgG at room temperature for 1 hour, and then nuclei thereof were stained with a horchest solution and observed under a fluorescence microscope. At this time, the AMPK agonist A-769662 (1 μM) was used as a positive control."}, "C57BL/6 mice [8]": {"tested_on": "C57BL/6 mice", "experiment": "Dexamethasone-induced muscular atrophy mouse model: body weight and plasma liver function test", "format": "in vivo", "conditions": "dexamethasone 10 mg/kg i.p., vs Veh", "method": "as §1, with “respectively.” for “respectively. The mouse muscle tissue was stained using the H&E method and then histological morphology was observed.”"}}}
{"substance": "2′-fucosyllactose [2′-FL]", "values": [{"measurement": "atrogin-1 gene expression", "setting": "atrogin-1 gene", "result": "significantly decreased"}, {"measurement": "MuRF1 gene expression", "setting": "MuRF1 gene", "result": "significantly decreased"}, {"measurement": "mitochondrial density measured using the MitoTracker", "setting": "[1]", "result": "increased in a concentration-dependent manner"}, {"measurement": "mtDNA expression", "setting": "[1]", "result": "significantly increased in a concentration-dependent manner"}, {"measurement": "mitochondrial function (mtDNA expression and mitochondrial density)", "setting": "[2]", "result": "significantly increased"}, {"measurement": "muscular atrophy morphological characteristics (decreased muscle bundle size, imbalance in nuclear location), H&E", "setting": "[3]", "result": "ameliorated"}, {"measurement": "weight of extensor digitorum longus", "setting": "[3]", "result": "significantly increased"}, {"measurement": "weight of gastrocnemius muscle", "setting": "[3]", "result": "significantly increased"}, {"measurement": "weight of muscle tissue (unspecified)", "setting": "[3]", "result": "significantly increased"}, {"measurement": "diameter of myotubes", "setting": "[4]", "result": "significantly increased"}, {"measurement": "length of myotubes", "setting": "[4]", "result": "significantly increased"}, {"measurement": "expression of atrogin-1 protein in muscle tissue", "setting": "atrogin-1 protein", "result": "significantly decreased"}, {"measurement": "grip strength", "setting": "C57BL/6 mice [5]", "result": "significantly increased"}, {"measurement": "cell viability", "setting": "[6]", "result": "no difference in cell viability"}, {"measurement": "expression of PGC-1α mRNA", "setting": "PGC-1α mRNA", "result": "significantly increased"}, {"measurement": "expression of NRF2 mRNA", "setting": "NRF2 mRNA", "result": "significantly increased"}, {"measurement": "number of cells", "setting": "[7]", "result": "significantly increased"}, {"measurement": "MHC expression", "setting": "C2C12 myotubes, MHC", "result": "increased"}, {"measurement": "length and thickness of myotubes", "setting": "C2C12 myotubes, MHC", "result": "increased"}, {"measurement": "mouse weight", "setting": "C57BL/6 mice [8]; 2FLH (2′-FL 400 mg/kg oral), 3 weeks", "result": "increased"}, {"measurement": "plasma GOT activity", "setting": "C57BL/6 mice [8]; 2′-FL 200 or 400 mg/kg oral", "result": "lowered"}, {"measurement": "plasma GPT activity", "setting": "C57BL/6 mice [8]; 2′-FL 200 or 400 mg/kg oral", "result": "lowered"}]}
